Data from the NIST ThermoML archive (doi:10.1016/j.jct.2016.12.015).

Settings: 101.33 kPa, Crystal, Small (less than 1 g) adiabatic calorimetry

C[C@H]1C[C@@H]2[C@H]([C@@H](O)C[C@@]3(C)[C@H]2CC[C@]3(O)C(=O)CO)[C@@]2(C)C=CC(=O)C=C12 [Methylprednisolone]
Settings | molar entropy [J/K/mol]
5 K | 0.328
10 K | 2.37
15 K | 6.133
20 K | 11.27
25 K | 17.53
30 K | 24.43
35 K | 31.67
40 K | 39.13
45 K | 46.76
50 K | 54.53
60 K | 70.39
70 K | 86.6
80 K | 103
90 K | 119.5
100 K | 136.1
110 K | 152.7
120 K | 169.2
130 K | 185.7
140 K | 202.1
150 K | 218.5
160 K | 234.8
170 K | 251
180 K | 267.2
190 K | 283.3
200 K | 299.3
210 K | 315.3
220 K | 331.3
230 K | 347.2
240 K | 363.1
250 K | 379
260 K | 394.8
270 K | 410.6
280 K | 426.4
290 K | 442.3
298.15 K | 455.2
300 K | 458.1
310 K | 473.9
320 K | 489.8
330 K | 505.6
340 K | 521.4
350 K | 537.3
